Assay results taken from patent US9206191B2, “Indazoles for the treatment and prophylaxis of respiratory syncytial virus infection” (Hoffmann-La Roche Inc., priority 2012, dated 2015).

System: RSV Long strain
Experiment: Viral Cytopathic Effect (CPE) Assay
Format: cell-based
Settings: human respiratory syncytial virus, 144 h, cell viability after 6 days, Cell Counting kit-8

SMILES | EC50 [nM]
CS(=O)(=O)c1nn(Cc2nc3cc(Cl)ccc3n2C2CCOC2)c2cnccc12 (stereo not drawn) [Example 2-28, 1-{[5-Chloro-1-(tetrahydrofuran-3-yl)-1H-benzimidazol-2-yl]methyl}-3-(methylsulfonyl)-1H-pyrazolo[3,4-c]pyridine] | 7.57
CS(=O)(=O)c1nn(Cc2nc3cc(Cl)ccc3n2CCCC(F)(F)F)c2c[n+]([O-])ccc12 [Example 4-2, 1-{[5-Chloro-1-(4,4,4-trifluorobutyl)-1H-benzimidazol-2-yl]methyl}-3-(methylsulfonyl)-1H-pyrazolo[3,4-c]pyridine 6-oxide] | 15.9
C[C@@]1(O)CC[C@H](n2c(Cn3nc(S(C)(=O)=O)c4ccncc43)nc3cc(Cl)ccc32)C1 (relative stereo) [Example 2-43, cis-3-(5-chloro-2-{[3-(methylsulfonyl)-1H-pyrazolo[3,4-c]pyridin-1-yl]methyl}-1H-benzimidazol-1-yl)-1-methylcyclopentanol] | 17.9
CS(=O)(=O)CCCn1c(Cn2cc(S(C)(=O)=O)c3ccccc32)nc2cc(Cl)ccc21 [Example 1-2, 5-Chloro-2-{[3-(methylsulfonyl)-1H-indol-1-yl]methyl}-1-[3-(methylsulfonyl)propyl]-1H-benzimidazole] | 62.5
CC(=O)N1CCC(n2c(Cn3nc(S(C)(=O)=O)c4ccncc43)nc3cc(Cl)ccc32)C1 (stereo not drawn) [Example 2-16, 1-[3-(5-Chloro-2-{[3-(methylsulfonyl)-1H-pyrazolo[3,4-c]pyridin-1-yl]methyl}-1H-benzimidazol-1-yl)pyrrolidin-1-yl]ethanone] | 16.4
CS(=O)(=O)CCn1c(Cn2nc(S(C)(=O)=O)c3ccccc32)nc2cc(Cl)ccc21 [Example 1-12, 1-({5-Chloro-1-[2-(methylsulfonyl)ethyl]-1H-benzimidazol-2-yl}methyl)-3-(methylsulfonyl)-1H-indazole] | 26.2
CS(=O)(=O)c1nn(Cc2nc3cc(Cl)ccc3n2CCC(O)C(F)(F)F)c2cnccc12 (stereo not drawn) [Example 2-42, 4-(5-chloro-2-{[3-(methylsulfonyl)-1H-pyrazolo[3,4-c]pyridin-1-yl]methyl}-1H-benzimidazol-1-yl)-1,1,1-trifluorobutan-2-ol] | 1.6
CS(=O)(=O)c1nn(Cc2nc3cc(Cl)ccc3n2CC2CCOC2)c2cnccc12 (stereo not drawn) [Example 2-31, 1-{[5-Chloro-1-(tetrahydrofuran-3-ylmethyl)-1H-benzimidazol-2-yl]methyl}-3-(methylsulfonyl)-1H-pyrazolo[3,4-c]pyridine] | 4.34
CS(=O)(=O)c1nn(Cc2nc3cc(Cl)ccc3n2CCC2COC2)c2cnccc12 [Example 2-23, 1-({5-Chloro-1-[2-(oxetan-3-yl)ethyl]-1H-benzimidazol-2-yl}methyl)-3-(methylsulfonyl)-1H-pyrazolo[3,4-c]pyridine] | 6
CS(=O)(=O)c1nn(Cc2nc3cc(Cl)ccc3n2C2CCOCC2)c2ccccc12 [Example 2-6, 1-{[5-Chloro-1-(tetrahydro-2H-pyran-4-yl)-1H-benzimidazol-2-yl]methyl}-3-(methylsulfonyl)-1H-indazole] | 21.8
CS(=O)(=O)c1nn(Cc2nc3cc(Cl)ccc3n2C2CNC3(COC3)C2)c2cnccc12 (stereo not drawn) [Example 8, 1-{[5-Chloro-1-(2-oxa-5-azaspiro[3.4]oct-7-yl)-1H-benzimidazol-2-yl]methyl}-3-(methanesulfonyl)-1H-pyrazolo[3,4-c]pyridine] | 19.4
CS(=O)(=O)c1nn(Cc2nc3cc(Cl)ccc3n2CCCC(F)(F)F)c2ccccc12 [Example 4-1, 1-{[5-Chloro-1-(4,4,4-trifluorobutyl)-1H-benzimidazol-2-yl]methyl}-3-(methylsulfonyl)-1H-indazole] | 14.6
CS(=O)(=O)c1nn(Cc2nc3cc(Cl)ccc3n2CCCCO)c2cnccc12 [Example 2-30, 4-(5-Chloro-2-{[3-(methylsulfonyl)-1H-pyrazolo[3,4-c]pyridin-1-yl]methyl}-1H-benzimidazol-1-yl)butan-1-ol] | 4.81
CS(=O)(=O)c1nn(Cc2nc3cc(Cl)ccc3n2[C@H]2CC[C@H](O)C2)c2cnccc12 (relative stereo) [Example 2-36, trans-3-(5-chloro-2-{[3-(methylsulfonyl)-1H-pyrazolo[3,4-c]pyridin-1-yl]methyl}-1H-benzimidazol-1-yl)cyclopentanol] | 2
CS(=O)(=O)c1nn(Cc2nc3cc(Cl)ccc3n2C2CCNCC2)c2ccccc12 [Example 2-15, 1-{[5-Chloro-1-(piperidin-4-yl)-1H-benzimidazol-2-yl]methyl}-3-(methylsulfonyl)-1H-indazole] | 591
CS(=O)(=O)c1nn(Cc2nc3cc(Cl)ccc3n2C2COC2)c2ccccc12 [Example 2-3, 1-{[5-Chloro-1-(oxetan-3-yl)-1H-benzimidazol-2-yl]methyl}-3-(methylsulfonyl)-1H-indazole] | 21.8
CS(=O)(=O)c1nn(Cc2nc3cc(Cl)ccc3n2C2CCS(=O)(=O)C2)c2ccccc12 (stereo not drawn) [Example 2-2, 1-{[5-Chloro-1-(1,1-dioxidotetrahydrothiophen-3-yl)-1H-benzimidazol-2-yl]methyl}-3-(methylsulfonyl)-1H-indazole] | 7.86

SMILES | EC50 [nM]
CC(C)(O)[C@H]1C[C@H](n2c(Cn3nc(S(C)(=O)=O)c4ccncc43)nc3cc(Cl)ccc32)C1 [Example 2-39, 2-[trans-3-(5-chloro-2-{[3-(methylsulfonyl)-1H-pyrazolo[3,4-c]pyridin-1-yl]methyl}-1H-benzimidazol-1-yl)cyclobutyl]propan-2-ol] | 2
CS(=O)(=O)c1nn(Cc2nc3cc(Cl)ccc3n2C2CCC(F)(F)C2)c2cnccc12 (stereo not drawn) [Example 2-10, 1-{[5-Chloro-1-(3,3-difluorocyclopentyl)-1H-benzimidazol-2-yl]methyl}-3-(methylsulfonyl)-1H-pyrazolo[3,4-c]pyridine] | 14.3
CC(C)S(=O)(=O)c1nn(Cc2nc3cc(Cl)ccc3n2CCCS(C)(=O)=O)c2ccccc12 [Example 1-9, 1-({5-Chloro-1-[3-(methylsulfonyl)propyl]-1H-benzimidazol-2-yl}methyl)-3-(propan-2-ylsulfonyl)-1H-indazole] | 74.4
CS(=O)(=O)c1nn(Cc2nc3cc(Cl)ccc3n2C2CCC(O)CC2)c2cnccc12 (stereo not drawn) [Example 2-11, 4-(5-Chloro-2-{[3-(methylsulfonyl)-1H-pyrazolo[3,4-c]pyridin-1-yl]methyl}-1H-benzimidazol-1-yl)cyclohexanol] | 8.2
CS(=O)(=O)c1nn(Cc2nc3cc(Cl)ccc3n2[C@H]2C[C@H](C(=O)O)C2)c2cnccc12 [Example 2-41, trans-3-(5-chloro-2-{[3-(methylsulfonyl)-1H-pyrazolo[3,4-c]pyridin-1-yl]methyl}-1H-benzimidazol-1-yl)cyclobutanecarboxylic acid] | 7
CC(=O)N1CC[C@@H](n2c(Cn3nc(S(C)(=O)=O)c4ccncc43)nc3cc(Cl)ccc32)C1 [Example 6-1, 1-[(3R)-3-(5-Chloro-2-{[3-(methylsulfonyl)-1H-pyrazolo[3,4-c]pyridin-1-yl]methyl}-1H-benzimidazol-1-yl)pyrrolidin-1-yl]ethanone] | 7
CS(=O)(=O)c1nn(Cc2nc3cc(Cl)ccc3n2C2CC3(COC3)C2)c2cnccc12 [Example 2-24, 1-{[5-Chloro-1-(2-oxaspiro[3.3]hept-6-yl)-1H-benzimidazol-2-yl]methyl}-3-(methylsulfonyl)-1H-pyrazolo[3,4-c]pyridine] | 8.66
CC(C)C(=O)N1CC[C@@H](n2c(Cn3nc(S(C)(=O)=O)c4ccncc43)nc3cc(Cl)ccc32)C1 [Example 6-4, 1-[(3R)-3-(5-Chloro-2-{[3-(methylsulfonyl)-1H-pyrazolo[3,4-c]pyridin-1-yl]methyl}-1H-benzimidazol-1-yl)pyrrolidin-1-yl]-2-methylpropan-1-one] | 4
CCS(=O)(=O)c1nn(Cc2nc3cc(Cl)ccc3n2CCCS(C)(=O)=O)c2ccccc12 [Example 1-10, 1-({5-Chloro-1-[3-(methylsulfonyl)propyl]-1H-benzimidazol-2-yl}methyl)-3-(ethylsulfonyl)-1H-indazole] | 37.8
CS(=O)(=O)c1nn(Cc2nc3cc(Cl)ccc3n2[C@H]2C[C@](C)(O)C2)c2cnccc12 [Example 2-26, trans-3-(5-Chloro-2-{[3-(methylsulfonyl)-1H-pyrazolo[3,4-c]pyridin-1-yl]methyl}-1H-benzimidazol-1-yl)-1-methylcyclobutanol] | 7
CS(=O)(=O)c1nn(Cc2nc3cc(Cl)ccc3n2[C@H]2C[C@H](CO)C2)c2cnccc12 [Example 11, [trans-3-(5-chloro-2-{[3-(methylsulfonyl)-1H-pyrazolo[3,4-c]pyridin-1-yl]methyl}-1H-benzimidazol-1-yl)cyclobutyl]methanol] | 3
CS(=O)(=O)c1nn(Cc2nc3cc(Cl)ccc3n2[C@H]2CC[C@@](C)(O)CC2)c2cnccc12 [Example 2-37, cis-4-(5-chloro-2-{[3-(methylsulfonyl)-1H-pyrazolo[3,4-c]pyridin-1-yl]methyl}-1H-benzimidazol-1-yl)-1-methylcyclohexanol] | 6
CS(=O)(=O)c1nn(Cc2nc3cc(Cl)ccc3n2[C@H]2C[C@H](O)C2)c2cnccc12 [Example 2-32, trans-3-(5-Chloro-2-{[3-(methylsulfonyl)-1H-pyrazolo[3,4-c]pyridin-1-yl]methyl}-1H-benzimidazol-1-yl)cyclobutanol] | 3.32
CS(=O)(=O)c1nn(Cc2nc3cc(Cl)cc(F)c3n2CCCC(F)(F)F)c2cnccc12 [Example 5-2, 1-{[5-Chloro-7-fluoro-1-(4,4,4-trifluorobutyl)-1H-benzimidazol-2-yl]methyl}-3-(methylsulfonyl)-1H-pyrazolo[3,4-c]pyridine] | 7
CS(=O)(=O)c1nn(Cc2nc3cc(Cl)ccc3n2C2CCN(C(=O)CO)C2)c2cnccc12 (stereo not drawn) [Example 2-17, 1-[3-(5-Chloro-2-{[3-(methylsulfonyl)-1H-pyrazolo[3,4-c]pyridin-1-yl]methyl}-1H-benzimidazol-1-yl)pyrrolidin-1-yl]-2-hydroxyethanone] | 10.9
CS(=O)(=O)CCn1c(Cn2nc(S(C)(=O)=O)c3ccncc32)cc2cc(Cl)cc(F)c21 [Example 9-3, 1-({5-Chloro-7-fluoro-1-[2-(methylsulfonyl)ethyl]-1H-indol-2-yl}methyl)-3-(methylsulfonyl)-1H-pyrazolo[3,4-c]pyridine] | 7.21
